From patent US20140162942A1, “INHIBITION OF CYP3A DRUG METABOLISM” (priority 2010, published 2014)
Read-outs that look alike come from different tables or passages of the source.

What was measured:
CYP1A2 = target: T1, CYP1A2 (Homo sapiens, UniProt P05177); assay: CYP1A2 inhibition, phenacetin O-deethylation in human liver microsomes; type: in vitro ADME; settings: for Potential for Time-Dep. Inhibition: comparison with and without 30-minute pre-incubation; for inhibition at 5 min, 100 µM: human, pH 7.4, probe phenacetin (O-deethylation), 60 μM
T1 construct: Pooled human liver microsomes (from sixteen individuals) were used as the source of enzymes; tissue XenoTech, LLC; host or cells: human liver microsomes, pool of sixteen donors
T1 sequence (P05177 1-516): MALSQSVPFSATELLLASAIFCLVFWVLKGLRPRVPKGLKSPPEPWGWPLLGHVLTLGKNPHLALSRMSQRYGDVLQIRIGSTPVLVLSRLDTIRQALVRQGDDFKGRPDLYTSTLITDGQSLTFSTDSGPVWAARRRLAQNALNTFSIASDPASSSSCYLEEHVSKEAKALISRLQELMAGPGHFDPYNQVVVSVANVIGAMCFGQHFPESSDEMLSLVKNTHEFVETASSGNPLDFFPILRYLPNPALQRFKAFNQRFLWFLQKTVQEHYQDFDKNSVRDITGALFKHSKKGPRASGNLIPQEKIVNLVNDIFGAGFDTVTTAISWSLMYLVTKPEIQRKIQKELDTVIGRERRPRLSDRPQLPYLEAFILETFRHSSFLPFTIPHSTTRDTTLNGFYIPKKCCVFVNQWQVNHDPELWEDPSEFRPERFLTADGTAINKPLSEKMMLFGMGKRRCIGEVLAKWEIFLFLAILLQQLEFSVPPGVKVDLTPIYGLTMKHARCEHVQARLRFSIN
Method: (§1) The basis for many of the following incubation conditions is described in the following references: Madan, et al., 2002,^(1) Huang, 2004,^(3) Ogilvie, et al., 2006,^(6) Pearce, et al., 1996,^(7) Tucker, et al., 2001,^(4) and Walsky and Obach, 2004.^(5) In general, incubations were conducted at approximately 37° C. in 400-μL incubation mixtures (target pH 7.4) containing high purity water, potassium phosphate buffer (50 mM), MgCl2 (3 mM), EDTA (1 mM), an NADPH-generating system [always the mixture of the following: NADP (1 mM), glucose-6-phosphate (5 mM), glucose-6-phosphate dehydrogenase (1 Unit/mL)], and marker substrate at the final concentrations indicated. Pooled human liver microsomes (from sixteen individuals) were used as the source of enzymes (Section 1.3.1.2). The concentrations of marker substrates were based on the Km and Vmax data that were determined previously (data not shown).
(§2) Due to the possibility that boceprevir may bind to microsomal protein or lipids, an attempt was made to design these experiments such that, in as many cases as possible, the microsomal protein, incubation time, and phosphate buffer concentration were 0.1 mg/mL, 5 minutes and 50 mM, respectively, for assays performed with human liver microsomes (Table 1). […] Since it is not imperative that the concentration of marker substrates be exactly equal to Km, the marker substrate concentrations were rounded up or down, as applicable, to simplify the experimental design (data not shown). […] Thus, the final incubation concentration of phenacetin was 60 μM (Table 1).
(§3) The ability of boceprevir to inhibit the CYP enzymes listed in Section 1.2.1 was investigated with a pool of sixteen individual human liver microsomal samples at the concentrations indicated in Table 1. Aliquots of the stock and/or working solutions of boceprevir were manually added to buffer mixtures containing the components described in Section 1.3.21. Incubation mixtures were prepared in bulk to obviate the need for directly pipetting very small volumes (i.e., 1 μL or less). Incubations containing no boceprevir (0 μM) contained the vehicle used to dissolve boceprevir (i.e., 1% methanol).
(§4) The Tecan liquid handling system conducted all remaining incubation steps, with the exception of the centrifugation. Aliquots of the buffer mixtures were then automatically added to 96-well plates at the appropriate locations in duplicate. Aliquots of a substrate working solution were added to the 96-well plates, prior to initiating reactions, to give the final concentrations indicated in Table 1. Reactions were initiated with the addition of an aliquot of an NADPH-generating system. Reactions were automatically terminated at approximately 5 minutes, by the addition of the appropriate internal standard (Table 5) and stop reagent; acetonitrile. Precipitated protein was removed by centrifugation (920 g for 10 minutes at 10° C.). Standards and quality control samples were similarly prepared with the addition of authentic metabolite standards.
To examine its ability to act as a time-dependent inhibitor, boceprevir (at the same concentrations used to evaluate direct inhibition) was pre-incubated at 37±1° C., in duplicate, with human liver microsomes and an NADPH-generating system for approximately 30 minutes. This pre-incubation allowed for the generation of intermediates that could inhibit human CYP enzymes. The pre-incubations were initiated with the addition of an aliquot of an NADPH-generating system. […] Reactions were automatically terminated, at approximately 5 minutes, by the addition of the appropriate internal standard (Table 5) and stop reagent; acetonitrile. Precipitated protein was removed by centrifugation (920 g for 10 minutes at 10° C.). Incubations containing no boceprevir (0 μM) and incubations that contained boceprevir but were not pre-incubated, served as negative controls.

CYP2C9 = target: T2, CYP2C9 (Homo sapiens, UniProt P11712); assay: CYP2C9 inhibition, diclofenac 4′-hydroxylation in human liver microsomes; type: in vitro ADME; settings: for Potential for Time-Dep. Inhibition: comparison with and without 30-minute pre-incubation
T2 construct: Pooled human liver microsomes (from sixteen individuals) were used as the source of enzymes; tissue XenoTech, LLC; host or cells: human liver microsomes, pool of sixteen donors
T2 sequence (P11712 whole entry): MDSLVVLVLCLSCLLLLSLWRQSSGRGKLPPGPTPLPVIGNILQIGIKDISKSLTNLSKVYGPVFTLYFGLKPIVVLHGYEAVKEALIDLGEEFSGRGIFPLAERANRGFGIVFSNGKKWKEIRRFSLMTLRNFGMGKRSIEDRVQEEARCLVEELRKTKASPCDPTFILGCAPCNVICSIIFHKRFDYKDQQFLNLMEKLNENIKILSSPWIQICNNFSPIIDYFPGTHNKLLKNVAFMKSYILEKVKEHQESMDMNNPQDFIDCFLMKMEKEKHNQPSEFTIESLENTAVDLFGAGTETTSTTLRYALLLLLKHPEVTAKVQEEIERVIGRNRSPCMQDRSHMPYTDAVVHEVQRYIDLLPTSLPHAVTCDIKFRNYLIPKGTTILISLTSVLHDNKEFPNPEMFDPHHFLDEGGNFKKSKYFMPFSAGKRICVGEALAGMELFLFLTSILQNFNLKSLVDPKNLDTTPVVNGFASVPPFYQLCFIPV
Method: as §1, §2, §3, §4
To examine its ability to act as a time-dependent inhibitor, boceprevir (at the same concentrations used to evaluate direct inhibition) was pre-incubated at 37±1° C., in duplicate, with human liver microsomes and an NADPH-generating system for approximately 30 minutes. This pre-incubation allowed for the generation of intermediates that could inhibit human CYP enzymes. The pre-incubations were initiated with the addition of an aliquot of an NADPH-generating system. […]

CYP3A4/5 = assay: NADPH dependence and effects of dilution of time-dependent inhibition of CYP3A4/5 (testosterone 6β-hydroxylation and midazolam 1′-hydroxylation); type: in vitro ADME, human; settings: 3 μM
[1] = Qualitative visual solubility in the test system; type: physicochemical; settings: 10 μL of 10 mM methanol stock in 990 μL buffer with human liver microsomes, pH 7.4
Method: A stock solution of boceprevir (target concentration of 10 mM) in methanol was prepared and solubility testing was conducted to qualitatively assess boceprevir solubility in the test system. An aliquot (10 μL) of the highest stock boceprevir solution (10 mM in methanol) was added to a 990-μL mixture (target pH 7.4) containing high purity water, potassium phosphate buffer (50 mM), MgCl2 (3 mM), EDTA (1 mM), and human liver microsomes (0.0125 and 0.1 mg/mL) at the final concentrations listed (for a total volume of 1000 μt). […] The stock solution (10 mM boceprevir for IC50 determinations), along with dilutions to working solutions (ranging from 0.01 to 3.0 mM boceprevir) were prepared fresh each day experiments were performed. […] These solutions were prepared fresh on the day the Ki determination experiment was performed. Additionally, a stock concentration of 0.3 mM was used in the NADPH dependence/effects of dilution, as well as the MIC formation experiment.

[2] = direct inhibition, zero-minute pre-incubation, pooled human liver microsomes
[3] = time-dependent inhibition, 30-minute pre-incubation

Question: For `CC(C)(C)NC(=O)NC(C(=O)N1CC2C([C@H]1C(=O)NC(CC1CCC1)C(=O)C(N)=O)C2(C)C)C(C)(C)C` (stereo partly drawn) [Boceprevir, (1R,2S,5S)—N-[(2Ξ)-4-amino-1-cyclobutyl-3,4-dioxobutan-2-yl]-3-{(2S)-2-[(tert-butylcarbamoyl)amino]-3,3-dimethylbutanoyl}-6,6-dimethyl-3-azabicyclo[3.1.0]hexane-2-carboxamide], which “Potential for Time-Dep. Inhibition” value (CYP1A2) is on record?
Answer: Its value is “little or no”.

Question: And the “Potential for Time-Dep. Inhibition” value (CYP1A2; listed as boceprevir)?
Answer: Its value is “no discernable time-dependent inhibition”.

Question: What about the IC50 (CYP1A2; [2]) of the same compound?
Answer: The IC50 was over 100 µM.

Question: What about the inhibition at 5 min, 100 µM (CYP1A2; pooled human liver microsomes, direct inhibition, zero-minute pre-incubation, read-out: Max. Inhib. at 100 μM) of the same compound?
Answer: Its inhibition at 5 min, 100 µM is 22%.

Question: What about the inhibition at 5 min, 100 µM (CYP1A2; pooled human liver microsomes, time-dependent inhibition, 30-minute pre-incubation, read-out: Maximum Inhibition at 100 μM) of the same compound?
Answer: Its inhibition at 5 min, 100 µM is 9.8%.

Question: And the IC50 (CYP1A2; [3])?
Answer: The IC50 was over 100 µM.

Question: And the “Potential for Time-Dep. Inhibition” value (CYP2C9)?
Answer: The value was “little or no”.

Question: And the “Potential for Time-Dep. Inhibition” value (CYP2C9; listed as boceprevir)?
Answer: The value was “no discernable time-dependent inhibition”.

Question: And the IC50 (CYP2C9; [2])?
Answer: The IC50 was over 100 µM.

Question: And the inhibition at 5 min, 100 µM (CYP2C9; human, pooled human liver microsomes, pH 7.4, probe diclofenac (4′-hydroxylation), direct inhibition, zero-minute pre-incubation, read-out: Max. Inhib. at 100 μM)?
Answer: Its inhibition at 5 min, 100 µM is 3.6%.

Question: And the IC50 (CYP2C9; [3])?
Answer: The IC50 was over 100 µM.

Question: And the “Resistance to dilution of the increase in inhibition upon pre-incubation” value (CYP3A4/5; 25-fold dilution after pre-incubation)?
Answer: The value was “did not appear to be resistant to dilution”.

Question: What about the “NADPH dependence of the increase in inhibition upon pre-incubation” value (CYP3A4/5; pre-incubation 0, 15 and 30 minutes with and without NADPH) of the same compound?
Answer: The value was “did require NADPH”.

Question: What about the “Solubility in the test system (qualitative visual comparison)” value [1] of the same compound?
Answer: The value was “soluble”.
